According to patent publication US20220040255A1, “CHEMOTHERAPEUTIC REMODELING OF THE GUT MICROBIOME” (THE SCRIPPS RESEARCH INSTITUTE, priority 2018, published 2022):
Where a SMILES comes first, the peptide text is derived from it. [ ]: non-standard residue; d: D form.

Columns and labels:
[1] = plasma cholesterol and lipoprotein profile; assay type: in vivo, LDLr−/− mice; conditions: for reduction in cholesterol in the CHD mice: CHD-fed mice; for HDL-cholesterol levels / levels of VLDL and LDL / reduction of plasma total cholesterol compared to the untreated WD group: WD; for HDL-cholesterol levels / levels of VLDL and LDL: peptide-treated animals; for reduction of plasma total cholesterol compared to the untreated WD group: two-week time point, oral administration
Description: (§1) Animals and diets. LDL receptor-null (LDLr^−/−) mice on a C57BL/6J background were initially purchased from Jackson Laboratories (Bar Harbor, Me.) and were bred in house. Unless otherwise noted, all experiments were performed with 8-12 weeks old LDLr^−/− female mice. For studies involving analysis of the gut microbiome, the mice were rotated between cages and co-housed with the mice from different groups for at least one week before the beginning of each study to reduce the variation in the composition of gut microbiome caused by the housing environment. The mice were weaned at 4 weeks of age and were fed ad libitum a standard chow diet (Harlan Teklad 7019) until they were 10-weeks old, when they were switched to a high-fat diet (WD) containing 15.8% (wt/wt) fat, 1.25% (wt/wt) cholesterol, and no cholate (Harlan Teklad 94059). At the time that the WD was started, the cyclic peptide was added to the drinking water at a dose of 180 μM and the mice (female, n=8 per dosing group) were continued on WD for 10 weeks. The lyophilized peptide was dissolved in PBS (pH 7.4) containing 1% sucrose, resulting in a clear solution. The drinking water solution was replaced with fresh solution daily for c[wLwReQeR] (SEQ ID NO:11) or every other day for c[wLwKhShK] (SEQ ID NO:1). A control group of eight mice (female, n=8) was fed WD and provided vehicle (PBS with 1% sucrose) drinking water. The mice consumed approximately 4.0 mL of water per day per mouse, and there was no significant difference in water or food consumption between groups. All procedures involving live animals were approved by the Scripps Research Institute Institutional Animal Care and Use Committee.
Measurement of plasma cholesterol and liver enzyme activities. The mice were bled after an overnight fast after 2 and 10 weeks of treatment. The plasma samples were used to determine lipoprotein profiles and the levels of cholesterol, alanine aminotransferase (ALT), and aspartate aminotransferase (AST). Measurements of plasma levels of cholesterol, ALT, and AST were performed as described in Zhao et al., ACS Cent. Sci. 3, 639-646, 2017. Briefly, plasma was separated from whole blood immediately by centrifugation of the blood samples at 5,000 rpm for 10 min at 4° C., and was then stored at −80° C. Plasma total cholesterol was measured using an enzymatic fluorometric method kit (Amplex® red cholesterol assay kit, No. A12216, Life Technologies) according to the manufacturer's instructions. Plasma ALT and AST concentrations were measured using Infinity ALT (GPT) and AST (GOT) liquid stable assays, respectively, which are colorimetric kinetic assays (Thermo Scientific). Assays were performed in accordance with the manufacturer's recommendations, adjusting the reagent volumes (20 μL plasma+200 μL reagent, 0.69 cm light pathlength of the solution in the well) for analysis of samples in 96-well flat-bottom microplate format.
Plasma lipoprotein profile. Pooled plasma (240 μL total, 30 μL from each, n=8 fasted mice per group) from the two-week blood draw was used for fast protein liquid chromatography (FPLC) analysis. Lipoproteins were separated by using 3 Superdex 200 10/30 columns connected in series (GE Healthcare). The plasma was centrifuged at 11,000 rpm for 10 min at room temperature to remove particulates (floating material was gently mixed into liquid before removing the supernatant for FPLC injection). 200 μL of the pooled plasma was injected on the system eluted with 10 mM tris-HCl buffer, pH 7.4, containing 1 mM EDTA and 150 mM NaCl; a flow rate of 0.5 ml/min and fraction size of 0.5 mL were used.

atherosclerotic lesions = experiment: analysis of atherosclerosis (whole aorta en face, aortic sinus); assay type: in vivo, LDLr−/− mice; conditions: completion of the 10-week study
Description: Analysis of atherosclerosis. Atherosclerotic lesion severity was assessed in the aortae as previously described. Briefly, at euthanasia, animals were perfused with PBS, followed by 4% formaldehyde (10% UltraPure EM Grade from Polysciences diluted in PBS, pH 7.2). For en face analysis, the entire mouse aorta was dissected from the proximal ascending aorta to the bifurcation of the iliac artery by using a dissecting microscope. Adventitial fat was removed, and the aorta was opened longitudinally, pinned flat onto black dissecting wax, stained with Sudan IV, and photographed at a fixed magnification. The photographs were digitized, and total aortic areas and lesion areas were calculated by using Adobe Photoshop and NIH Image J software. The results were reported as a percentage of the total aortic area that contained lesions.
As a second assessment of atherosclerosis, lesions of the aortic root (heart sinus) were analyzed^55. Utilizing stereological principles, lesion volume was estimated across a fixed distance of the aortic sinus. After 10 min fixation in 4% paraformaldehyde, hearts were cut at an angle perpendicular to the atria of the heart and embedded in OCT (Tissue-Tek). Frozen hearts were sectioned on a Leica cryostat, with 10-μm sections collected from the beginning of the aortic sinus (defined as when a valve leaflet became visible) to 500 μm below the beginning of the sinus. […] Sections were collected in duplicate at 50-μm intervals. Sections were stained with oil red O, counterstained with Gill hematoxylin 1 (Fischer Scientific International), photographed, and digitized for lesion analysis. Scoring of valve lesion areas was done for each of the 3 valve cusps individually. Lesion areas found only within the valve cusp were measured. […] Lesion volume was calculated from an integration of the measured cross-sectional areas. Prediction of the coefficient of error (CE) in approximating lesion volume was computed using the Cavalieri estimator derived from a covariogram analysis of an ordered set of estimates of cross-sectional areas. This yielded CE values of less than 10% that were acceptable for a stereological computation of lesion volume.

gut microbiota = experiment: in vivo remodeling of the gut microbiome (feces 16S rRNA sequencing); design: species or system LDLr−/− mice; conditions: for overall microbiota alpha diversity: in vivo, 10-week study, peptide treatment; for time within which the Bacteroidetes/Firmicutes ratio increased relative to the vehicle WD-fed group: oral in drinking water, ~35 mg/kg/day, WD-fed LDLr−/− mice
Description: as §1
Feces sample collection and DNA extraction. The feces samples were freshly collected after 2, 6, and 10 weeks of treatment, snap-frozen, and stored at −80° C. Microbial genomic DNA was isolated with PowerSoil DNA isolation kit by following manufacturer's instructions (Mo Bio).
16S rRNA gene sequencing and processing. PCR amplicons of the V3-V4 16S rRNA region were amplified and sequenced using an Illumina MiSeq platform. For each sample, duplicate 25 μl PCR reactions were performed, each containing 50 ng of purified DNA, 12.5 μl 2×KAPA HiFi HotStart ReadyMix (Kapa biosystem), and 0.15 μM of each primer designed to amplify the V3-V4 region:
16S rRNA gene sequencing data analysis. We used custom python scripts to demultiplex sequencing reads based on the second barcode index and remove PCR duplication artifacts found using unique molecular identifiers prior to analyzing sequences using MOTHUR (version 1.36.1). […] Briefly, contigs were generated by combining forward and reverse paired-end reads. […] We performed a pre-clustering step to cluster reads up to 2 bp apart and removed all chimeric sequences. […]

## CC(C)C[C@@H]1NC(=O)[C@@H](Cc2c[nH]c3ccccc23)NC(=O)[C@H](CCCCN)NC(=O)[C@@H](Cc2c[nH]cn2)NC(=O)[C@H](CO)NC(=O)[C@@H](Cc2c[nH]cn2)NC(=O)[C@H](CCCCN)NC(=O)[C@@H](Cc2c[nH]c3ccccc23)NC1=O [c[wLwKhShK]] (cyclo([dW]L[dW]K[dH]S[dH]K))
[1]
  reduction in cholesterol in the CHD mice: no analogous peptide-mediated reduction
  HDL-cholesterol levels: higher
  levels of VLDL and LDL: marked reduction
  reduction of plasma total cholesterol compared to the untreated WD group: 37%
Atherosclerotic lesions
  reduction in atherosclerotic lesions, whole aorta lesion area: 37%
  reduction of aortic sinus lesion volume: 44%
Gut microbiota
  overall microbiota alpha diversity: unchanged
  time within which the Bacteroidetes/Firmicutes ratio increased relative to the vehicle WD-fed group: ≤ 2 weeks

## CC(C)C[C@@H]1NC(=O)[C@@H](Cc2c[nH]c3ccccc23)NC(=O)[C@H](CCCNC(=N)N)NC(=O)[C@@H](CCC(=O)O)NC(=O)[C@H](CCC(N)=O)NC(=O)[C@@H](CCC(=O)O)NC(=O)[C@H](CCCNC(=N)N)NC(=O)[C@@H](Cc2c[nH]c3ccccc23)NC1=O [c[wLwReQeR]] (cyclo([dW]L[dW]R[dE]Q[dE]R))
[1]
  reduction in cholesterol in the CHD mice: no analogous peptide-mediated reduction
  HDL-cholesterol levels: higher
  levels of VLDL and LDL: marked reduction
  reduction of plasma total cholesterol compared to the untreated WD group: 36%
Atherosclerotic lesions
  reduction in atherosclerotic lesions, whole aorta lesion area: 48%
  reduction of aortic sinus lesion volume: 37%
Gut microbiota
  overall microbiota alpha diversity: unchanged
  time within which the Bacteroidetes/Firmicutes ratio increased relative to the vehicle WD-fed group: ≤ 6 weeks
